Where a SMILES comes first, the peptide text is derived from it. [ ]: non-standard residue; d: D form. The star is where a group is joined. Phe(4-I) = N[C@@H](Cc1ccc(I)cc1)C(=O)O; hLeu = CC(C)CC[C@H](N)C(=O)O; Isobutyryl = CC(C)C(=O)*
Target: T1, Hypoxia-inducible factor 1-alpha [228-298] (Homo sapiens, UniProt Q16665)
T1 construct: 228-298
Assay: Assessment of HIF-1α and 2α Binding Activity in In Vitro Assays
Procedure: MST experiments were performed on a Monolith NT.115 system (Nanotemper Technologies GmbH), in assay buffer containing 50 nM labelled protein, 10% DMSO and 0.05% TWEEN-20. MST measurements were performed using 50% LED and 50% MST power.

T1 sequence (Q16665 whole entry): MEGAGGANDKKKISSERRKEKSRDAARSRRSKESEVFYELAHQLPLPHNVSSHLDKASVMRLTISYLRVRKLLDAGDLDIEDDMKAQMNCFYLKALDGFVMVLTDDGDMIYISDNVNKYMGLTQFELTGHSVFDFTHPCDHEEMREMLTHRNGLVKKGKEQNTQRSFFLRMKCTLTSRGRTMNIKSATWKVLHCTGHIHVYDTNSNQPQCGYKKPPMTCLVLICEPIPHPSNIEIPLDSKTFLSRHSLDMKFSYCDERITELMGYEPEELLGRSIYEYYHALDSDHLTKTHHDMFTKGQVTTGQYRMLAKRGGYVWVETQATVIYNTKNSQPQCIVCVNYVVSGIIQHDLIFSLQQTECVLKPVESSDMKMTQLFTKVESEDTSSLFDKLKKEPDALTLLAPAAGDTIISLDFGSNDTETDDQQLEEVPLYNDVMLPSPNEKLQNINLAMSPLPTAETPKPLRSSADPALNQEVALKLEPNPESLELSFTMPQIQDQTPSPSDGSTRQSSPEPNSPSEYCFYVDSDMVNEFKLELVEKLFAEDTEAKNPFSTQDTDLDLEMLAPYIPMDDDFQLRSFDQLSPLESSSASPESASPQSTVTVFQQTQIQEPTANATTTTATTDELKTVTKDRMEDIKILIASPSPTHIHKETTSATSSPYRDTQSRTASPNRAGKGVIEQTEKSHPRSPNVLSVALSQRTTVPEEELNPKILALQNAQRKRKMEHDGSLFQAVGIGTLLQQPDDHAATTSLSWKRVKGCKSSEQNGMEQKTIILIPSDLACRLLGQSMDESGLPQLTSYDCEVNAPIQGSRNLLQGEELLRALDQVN

Compound | Kd [µM]
CC(C)CC[C@H](NC(=O)C(C)C)C(=O)N[C@@H](Cc1ccc(I)cc1)C(=O)N[C@@H](CS)C(N)=O [US20250326790, Example 1] (Isobutyryl-[hLeu]-[Phe(4-I)]-Cys-NH2) | > 40
CC(C)CC[C@H](NS(=O)(=O)c1ccc(Cl)s1)C(=O)N[C@@H](Cc1ccc(I)cc1)C(=O)N[C@@H](CS)C(=O)NCCCCCCN [US20250326790, Example 41] | > 100
